Measurements reported in paper PMC8038090, “Xanthine Oxidase Inhibitors from Filipendula ulmaria (L.) Maxim. and Their Efficient Detections by HPTLC and HPLC Analyses” (Molecules, 2021).
In brackets after ≈: the same amount, converted by molar mass. Entries after “also recorded” stand apart in the source; their conditions may differ. Read-outs that look alike come from different tables or passages of the source.

Columns and labels:
[1] = Solubility for the XO assay; assay type: physicochemical; details: in water or DMSO
[2] = system: xanthine oxidase (XO); assay: HPTLC xanthine oxidase bioautography (NBT/formazan); assay type: biochemical; details: for XO inhibitory activity on HPTLC bioautography plate (spot intensity): white/yellow spots on purple background, 1 mg/mL, 20 µL applied
Description: As the spectrophotometer analysis monitors the production of uric acid from xanthine, the HPTLC method measures the production of the superoxide radical anion formed during the regeneration of an enzyme. In contact with superoxide radical anion, the Nitro Blue Tetrazolium (NBT) is transformed in formazan (purple), inducing a change in the color of the reaction mixture. The inhibitors will appear as white/yellow spots under a purple background.
The samples were prepared by dissolving 1 mg of each fraction in 1 mL of methanol, and 20 µL was applied on 8 mm bands, 8 mm from the lower edge of the plate. The mobile phase was a mixture of ethyl acetate, dichloromethane, formic acid, acetic acid, and water (100:25:10:10:11). […] After development, plates were dried under a stream of cool air for 10 min.
The XO inhibition assay was conducted using the method developed by Ramallo [32], with slight modifications. After migration, the plates were dipped into a solution of PBS 120 mM containing xanthine oxidase (0.1 U/mL), EDTA (1 mM), and NBT (1 mM) in a sterilizer, at 37 °C in the dark for 30 min. The plates were then dipped into a solution of PBS 120 mM containing xanthine (1.5 mM) in a sterilizer, at 37 °C for 30 min in the dark.

[3] = target: xanthine oxidase (XO) (Bos taurus, UniProt P80457); assay: Xanthine oxidase inhibitory activity by UV spectroscopy (uric acid formation at 293 nm); assay type: biochemical
Sequence of xanthine oxidase (XO) (Bos taurus, UniProt P80457) (P80457 2-1332 limits assumed): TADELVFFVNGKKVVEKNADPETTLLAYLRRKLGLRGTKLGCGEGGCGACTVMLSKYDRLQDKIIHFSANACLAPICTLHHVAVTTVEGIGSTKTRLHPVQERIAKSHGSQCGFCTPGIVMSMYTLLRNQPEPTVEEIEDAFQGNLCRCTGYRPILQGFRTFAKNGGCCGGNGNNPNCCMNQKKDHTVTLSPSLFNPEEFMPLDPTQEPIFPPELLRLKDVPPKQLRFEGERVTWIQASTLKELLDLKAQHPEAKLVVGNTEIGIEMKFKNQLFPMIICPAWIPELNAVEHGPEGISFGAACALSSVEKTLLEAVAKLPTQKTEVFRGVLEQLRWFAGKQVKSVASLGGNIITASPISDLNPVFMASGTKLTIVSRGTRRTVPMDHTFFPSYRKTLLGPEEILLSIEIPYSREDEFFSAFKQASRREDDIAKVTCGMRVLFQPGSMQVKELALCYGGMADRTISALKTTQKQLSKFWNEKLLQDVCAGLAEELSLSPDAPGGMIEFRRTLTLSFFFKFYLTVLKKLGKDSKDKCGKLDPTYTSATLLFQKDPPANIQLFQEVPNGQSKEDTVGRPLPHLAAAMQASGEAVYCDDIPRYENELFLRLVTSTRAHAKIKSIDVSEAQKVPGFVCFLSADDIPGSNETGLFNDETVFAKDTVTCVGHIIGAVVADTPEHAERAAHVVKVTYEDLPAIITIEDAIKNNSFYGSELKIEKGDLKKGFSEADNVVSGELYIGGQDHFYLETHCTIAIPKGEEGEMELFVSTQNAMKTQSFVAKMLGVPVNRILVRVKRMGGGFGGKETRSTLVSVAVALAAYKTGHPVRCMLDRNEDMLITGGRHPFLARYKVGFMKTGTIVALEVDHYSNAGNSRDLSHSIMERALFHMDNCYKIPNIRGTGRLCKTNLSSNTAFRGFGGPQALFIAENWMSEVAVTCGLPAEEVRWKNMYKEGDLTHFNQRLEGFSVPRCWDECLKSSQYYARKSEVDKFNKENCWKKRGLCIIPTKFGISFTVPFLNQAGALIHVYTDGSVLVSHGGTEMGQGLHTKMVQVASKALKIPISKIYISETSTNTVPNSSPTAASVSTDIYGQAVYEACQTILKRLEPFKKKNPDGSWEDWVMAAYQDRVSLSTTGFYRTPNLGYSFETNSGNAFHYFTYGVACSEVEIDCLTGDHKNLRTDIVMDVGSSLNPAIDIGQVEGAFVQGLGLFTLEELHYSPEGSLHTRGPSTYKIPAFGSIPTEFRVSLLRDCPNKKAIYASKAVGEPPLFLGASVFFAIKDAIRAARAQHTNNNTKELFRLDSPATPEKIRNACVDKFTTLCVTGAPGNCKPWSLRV
Description: Inhibition of XO was conducted according to the procedure described by Sowndhararajan et al., with slight modifications. […] Prior to the addition of XO solution in the mixture, all the components were incubated at 25 °C in the dark for 5 min. […] The enzymatic activity assay without extract was defined as maximum relative activity, and the percentage of inhibition was calculated according to the method of Yan et al. IC50 values were determined using linear regression and are expressed in µg/mL of plant extract ± standard deviation. All measurements were performed in triplicate (n = 3).

[4] = target: xanthine oxidase (XO); design: method as in doi:10.5539/jfr.v1n3p257, doi:10.1016/j.bjp.2015.08.013; details: described to possess no inhibitory activity; read-out: IC50, XO inhibition (described); cited from earlier work
[5] = system: xanthine oxidase (XO); assay: Measurement of XO interaction by HPLC (crude extract incubated with and without enzyme); assay type: binding; details: crude extract 1 mg/mL, XO 0.1 U/mL, 1 h; for Interaction with XO (HPLC subtraction, negative peaks): HPLC-UV 254 nm; for XO binding (%): estimated from difference of peak area with and without XO
Description: The identification of bioactive compounds which form in a complex mixture by rapid screening, without the requirement of purification, is a challenging approach. […] Based on the method described by Wang, we incubated the enzyme with the crude extract and carried out HPLC analyses on the filtrate after centrifugation.
The measurement of XO interaction was conducted according to Zhang’s procedure, with some modifications. The assay mixture contained 10 mL of crude extract at 1 mg/mL in water, and 200 µL of xanthine oxidase (final concentration of 0.1 U/mL), or 200 µL of water. Prior to the HPLC analysis, the solution was mixed for one hour at room temperature in the dark. After one hour, the mixture was centrifuged at 4500× g […] and supernatant was filtered through a 0.45 µm PTFE filter. […] Potential inhibitors were identified after subtraction of the chromatogram obtained from the assay with and without XO (negative peaks).

[6] = Stability in solution for the XO assay; assay type: physicochemical
[7] = UV spectroscopy, xanthine 56 µM, XO 0.01 U/mL, 25 °C, n = 3, read-out: IC50 (µg/mL), XO inhibition (converted)
[8] = UV spectroscopy, xanthine 56 µM, XO 0.01 U/mL, 25 °C, n = 3, read-out: IC50 (µM), XO inhibition

Row | Compound | XO inhibitory activity on HPTLC bioautography plate (spot intensity) [2] | IC50 [3, 7] [µM] | IC50 [3, 8] [µM] | Interaction with XO (HPLC subtraction, negative peaks) [5] | XO binding (%) [5] | other results
1 | O=c1oc2c(O)c(O)cc3c(=O)oc4c(O)c(O)cc1c4c23 [Ellagic acid] | weak activity | – | – | – | – | Solubility [1]: not soluble; Stability on the HPTLC plate [2]: decompose on the plate
2 | O=C(O)c1cc(O)c(O)c(O)c1 [Gallic acid] | – | > 1760 | – | – | – | IC50 [3]: > 50 µM; IC50 [4]: > 100 µM
3 | O=c1c(O[C@@H]2O[C@H](CO)[C@H](O)[C@H](O)[C@H]2O)c(-c2ccc(O)c(O)c2)oc2cc(O)cc(O)c12 [Hyperoside] | weak interactions | > 215 | > 50 | did not seem to interact | – | –
4 | O=c1c(O[C@@H]2O[C@H](CO)[C@@H](O)[C@H](O)[C@H]2O)c(-c2ccc(O)c(O)c2)oc2cc(O)cc(O)c12 [Isoquercitrin] | weak interactions | > 215 | > 50 | did not seem to interact | – | –
5 | O=c1c(O)c(-c2ccc(O[C@@H]3O[C@H](CO)[C@@H](O)[C@H](O)[C@H]3O)cc2)oc2cc(O)cc(O)c12 [Kaempferol-4′-O-glucoside] | – | – | – | significant interactions | – | –
6 | O=c1c(O)c(-c2ccc(O)cc2)oc2cc(O)cc(O)c12 [Kaempferol] | quite strong inhibitors; also recorded: strong interactions | – | – | seem to interact | – | –
7 | O=c1c(O)c(-c2ccc(O)c(O)c2)oc2cc(O)cc(O)c12 [Quercetin] | quite strong inhibitors; also recorded: strong interactions | – | – | seem to interact | ~50% | –
8 | O=C(O[C@@H]1O[C@@H]2COC(=O)c3cc(Oc4c(C(=O)O[C@@H]5O[C@@H]6COC(=O)c7cc(O)c(O)c(O)c7-c7c(cc(O)c(O)c7O)C(=O)O[C@H]6[C@H](OC(=O)c6cc(O)c(O)c(O)c6)[C@H]5OC(=O)c5cc(O)c(O)c(O)c5)cc(O)c(O)c4O)c(O)c(O)c3-c3c(cc(O)c(O)c3O)C(=O)O[C@H]2[C@H](OC(=O)c2cc(O)c(O)c(O)c2)[C@H]1OC(=O)c1cc(O)c(O)c(O)c1)c1cc(O)c(O)c(O)c1 [Rugosin D] | strong interactions | – | 35.7 ± 2.1 | strongest interaction | around 60% | IC50 (µg/mL), XO inhibition ([3]; UV spectroscopy, xanthine 56 µM, XO 0.01 U/mL, 25 °C, n = 3): 67.0 ± 1.1 µg/mL (≈ 35.7 µM)
9 | O=C(O)c1ccccc1O [Salicylic acid] | – | > 2170 | > 50 | – | – | IC50 [4]: > 100 µM
10 | O=c1c(O)c(-c2ccc(O[C@@H]3O[C@H](CO)[C@@H](O)[C@H](O)[C@H]3O)c(O)c2)oc2cc(O)cc(O)c12 [Spiraeoside] | quite strong inhibitors; also recorded: strong interactions | 0.668 | 0.66 ± 0.02 | significant interactions | around 30% | XO inhibitory activity relative to allopurinol ([3]; activity higher than allopurinol): around 25 times
11 | O=C(OC1O[C@@H]2COC(=O)c3cc(O)c(O)c(O)c3-c3c(cc(O)c(O)c3O)C(=O)O[C@H]2[C@H](OC(=O)c2cc(O)c(O)c(O)c2)[C@H]1OC(=O)c1cc(O)c(O)c(O)c1)c1cc(O)c(O)c(O)c1 (stereo partly drawn) [Tellimagrandin II] | weak activity | – | – | strongest interaction | around 30% | Stability in solution [6]: decomposed in the solution; Stability on the HPTLC plate [2]: decompose on the plate
